# How the values were obtained:
# [1] = test system: Drosophila suzukii adults; test: Multiple choice bioassay #1: anthracnose-induced volatiles, gated traps with blueberries; assay type: in vivo; details: 50 μL neat volatile added to blueberry fruit in gated trap; 15 traps per arena; 24 h; n=4
# Procedure: These bioassays were done in arenas that consisted of a dome cage (60 cm width×60 cm length x 60 cm height; BugDorm-2120 Insect tent; shop.bugdorm.com) (FIG. 1A). Within each arena, 15 gated traps were positioned randomly in a circle (40 cm diameter) at equal distance with each trap 8.4 cm apart along the circumference (FIG. 1A). Each gated trap consisted of 50 mL polystyrene tubes (Fisher Scientific, Nazareth, PA, USA) covered with aluminum foil and sealed with Parafilm®, with a 4 mm-diameter hole in the center of the Parafilm to provide an entrance to flies. All traps had equal quantities (ca. 5 g) of store-bought organic blueberry fruit (n=5); fruit were sterilized with bleach prior to the study (10% bleach for 2 min, rinsed three times in distilled water). One of the 15 traps served as a control (with blueberry fruit only) and the remaining 14 traps had one of the anthracnose volatile compounds added to the blueberry fruit. The 14 compounds tested were: 3-hydroxy-2-butanone, styrene, (E)-2-hexen-1-ol, ethyl 3-hydroxy-3-methylbutanoate, 2-methyl-1-butanol, ethyl propanoate, 2-methyl-1-propanol, diethyl carbonate, 2-methylpropanal, 3-methyl-1-butanol, ethyl 2-methylpropanoate, ethyl butanoate, ethyl (E)-but-2-enoate, and 3-methyl-3 buten-1-ol (see Results). Each volatile (50 μL, neat) was released from a 1 mL polyethylene vial (Globe Scientific Inc., Paramus, NJ, USA) with a piece of cotton placed inside each trap (control traps had vials with cotton but without the volatile). A vial with a cotton ball soaked with deionized water was placed in the middle of the arena to provide flies with water during the experiment. Roughly 300 D. suzukii adults (1:1 male: female ratio) were released inside each arena and the number and sex of flies inside treatment and control traps was recorded after 24 h. The experiment started at 1:00 p.m., was replicated 4 times, and was done in a laboratory under 22+2° C., 55+5% RH, 16:8 (L:D) h.
# Data from multiple choice assays on the percent of male and female D. suzukii adults responding to each volatile were compared using ANOVA (Minitab version 17; Minitab Inc., State College, PA, USA). The ANOVA model included treatment, sex, and their interaction as fixed factors and block (replicate) as a random factor. A multi-comparison Tukey test (Minitab) was used to determine differences among treatments. Percent data were arcsine square-root transformed prior to ANOVA. Pairwise choice assays were analyzed using G-tests with William's correction. Non-responders were excluded from the statistical analyses.
# [2] = test system: Drosophila suzukii; test: Semi-field cage oviposition deterrence, potted blueberry bushes; assay type: in vivo; details: N=10; for fewer eggs laid in treated berries than in control berries: sachet 2.5 mL, 24 h
# Procedure: Semi-field cage experiments were conducted from June until July to evaluate the oviposition deterrent effects of ethyl butanoate, ethyl (E)-but-2-enoate, and 2-pentylfuran against D. suzukii. These experiments are considered semi-field because they took place in an isolated open field surrounded by woods with potted plants inside outdoor cages. The cages were constructed using polyvinyl chloride (PVC) pipes (3.8 cm diameter) to construct 1.8 m×1.8 m×1.8 m frames. Screen tents (Lumite® screen portable field cages; BioQuip, CA, USA) were placed over the PVC frames, and large nails were used to secure the tents to the ground (FIG. 6A). Cages were spaced 10 m apart. To obtain blueberries for the experiment, prior to the start of the experiment, field-grown highbush blueberry (Vaccinium corymbosum L. var. ‘Bluecrop’) clusters were bagged early in the season with cloth bags when they were still green to prevent infestation from resident D. suzukii populations for use in the experiment. In addition, 80 3-to-4-year-old potted blueberry bushes were stripped of their berries and used for the experiment. On the day of testing, two bushes were placed in each cage (FIG. 6B). Each bush in the tent was surrounded by a metal tomato cage. The bagged blueberry fruit clusters in the field were clipped and brought inside the cages. Clusters of 10 berries were created and placed in water picks. Five berry clusters were distributed randomly and evenly on each tomato cage at different heights using green twist ties (FIG. 6B). The sachets used for the treatments were prepared according to the methods described by Gale et al. (2024). They were constructed from 8 cm strips of polyethylene tubing (5.1 cm width, 2 MIL thickness; ULINE, Pleasant Prairie, WI, USA) and polyester felt (Grainger, Lake Forest, IL, USA). One end of the polyethylene tubing was sealed with an impulse sealer. A 5 cm strip of felt was placed inside the sachet's open end, and a 2.5 mL aliquot of each treatment was pipetted onto the felt. The open end was then sealed shut with the impulse sealer, entirely sealing the saturated felt. A hole was punched at the top of each sachet, away from the treatment area to avoid damaging the sealed section, and green twist ties were used to hang the sachets in the center of a bush (FIG. 6B). Before loading the sachets, the weights of the empty sachets were taken. The sachets were weighed again directly after loading with the compounds and then a final time after the 24-hour test period to measure the emission rates of each volatile. In each cage, one of the bushes contained a sachet with the test volatile, while the other contained a blank sachet (control). Sachets were hung in the bushes 30 minutes prior to the start of experiments. Choice tests included: 1) control versus control; 2) control versus ethyl butanoate; […]) control versus ethyl (E)-but-2-enoate; and 4) control versus 2-pentylfuran. Fifty flies (1:1 male: female) were released in each cage at 18:00 hrs. After 24 hours, the berry clusters were collected and placed in 118 mL plastic cups. Berries were inspected under a dissection microscope for the number of eggs laid and were then incubated in 236.6 mL (8-oz) deli containers lined with two cotton pads on a laboratory bench at 22±2° C. and 55±5% relative humidity for two weeks to monitor for adult emergence. The study was replicated 10 times for each choice combination (N=4 choice combinations×2 bushes each×10 replicates=total of 80 bushes; N=50 flies×4 choice combinations×10 replicates=total of 2,000 flies). Semi-field cage data were analyzed using paired t-tests to determine differences between the number of eggs laid and adults that emerged from treated berries compared to control berries, and survival data were analyzed using two-way analysis of variance (ANOVA) (R statistical software version 4.1.1; R Development Core Team, Vienna, Austria). […]
# [3] = Emission rate from polyethylene sachets, field cages; assay type: physicochemical; details: field cage; sachets weighed before and 3 days after deployment
# Source text: Twenty-four hours after deploying the sachets, 120 flies (approximately 60 males and 60 females) were released into each cage at 18:00 hrs (N=120 flies×4 treatments×4 replicates=1,920 total flies). To ensure even distribution within the cages, 30 flies were released at four equidistant points between the bushes. A pre-sampling of the berries, conducted before the flies were released, confirmed the absence of any infestation. Berries were then collected 1-, 2-, and 3-days post-treatment. From every other bush (starting at the focal bush) in the cage, 50 berries from the top half and 50 from the bottom half were collected into two separate 236.6 mL deli containers lined with two cotton pads. From each berry sample, a random subsample of 10 berries were examined and egg counts recorded before being returned to the original container. The blueberries were incubated on a light bench in the laboratory for up to two weeks, as previously described, and adult emergence was recorded. The sachets were weighed before deployment and 3 days after deployment to measure the emission rates of each compound. Finally, the emission rates of compounds in the semi-field and field cage studies were calculated by subtracting the final weight of the sachets from the initial weight and dividing by the time interval (24 h or 3 days). These rates were then compared across repellent treatments using ANOVA, with Tukey pairwise comparisons conducted when significant differences were found.
emission rate (mean±SE) [3] [mg/day],Compound,number of flies captured relative to the control [1],deterrence index (DI) based on number of eggs laid [2],fewer flies (adult progeny) emerging from treated berries than from control berries ([2]; berries incubated two weeks) [%],fewer eggs laid in treated berries than in control berries [2] [%],difference in adult emergence between untreated and treated berries ([2]; berries incubated two weeks)
679.23 ± 17.73,C/C=C/C(=O)OCC [ethyl (E)-but-2-enoate],reduced the number of flies captured relative to the control,performed similarly and were significantly different from the control,78,75,
559.73 ± 23.54,"CCCCCc1ccco1 [2-pentylfuran, reference compound]",,performed similarly and were significantly different from the control,,67,nonsignificant
697.97 ± 7.96,CCCC(=O)OCC [ethyl butanoate],reduced the number of flies captured relative to the control,performed similarly and were significantly different from the control,59,54,
